# Data from patent publication US11807627B2, “Morphic forms of complement factor D inhibitors” (priority 2018, dated 2023).
# Where two headings read alike, the source gives them in different places.
# Tests used:
# [1] = ICH stability study of amorphous Compound 2; type: physicochemical
# Source text: Compound 2 stored in double LDPE bag with silica gel in aluminum receptacle with lid had the following stability characteristics described in Table 9.
# [2] = pH experiments and SIF/SGF/FaSSIF/FeSSIF solubility (Examples 3 and 4); type: physicochemical
# [3] = Dose number and BCS classification; type: physicochemical
# Thermal stability by TGA = type: physicochemical; details: to 150° C.
# Description: TG analyses were performed using a TA Instruments Q5000 IR thermogravimetric analyzer. Temperature calibration was performed using nickel and Alumel™. Each sample was placed in an aluminum pan. The sample was hermetically sealed, the lid pierced, then inserted into the TG furnace. The furnace was heated under nitrogen. The method code on the thermogram is an abbreviation for the start and end temperature as well as the heating rate; e.g., […] means “from 25° C. to 350° C., at 10° C./min”.
# Caco2 = Caco2 permeability and efflux ratio; type: in vitro ADME; details: A-B
# [4] = Caco2 permeability and efflux ratio; type: in vitro ADME; details: human, Caco-2; Caco2; read-out: Efflux ratio (B-A/A-B)
# [5] = Solution stress testing (acid, base, oxidative degradation); type: physicochemical
# [6] = Solid state stress testing (temperature, humidity, storage, photostability); type: physicochemical
compound,measurement,setting,value
CC(=O)c1nn(CC(=O)N2[C@H](C(=O)Nc3nc(Br)ccc3C)C[C@@]3(C)C[C@@H]23)c2c(C)cc(-c3cnc(C)nc3)cc12 [Compound 2],Assay,"[1]; 5° C./NR RH, 1-month",97.3%
same,Total Impurities,"[1]; 5° C./NR RH, 1-month",1.9%
same,Water Content,"[1]; 5° C./NR RH, 1-month",2.5%
same,XRPD,"[1]; 5° C./NR RH, 1-month",amorphous
same,Assay,"[1]; 5° C./NR RH, 3-month",97.5%
same,Total Impurities,"[1]; 5° C./NR RH, 3-month",1.7%
same,Water Content,"[1]; 5° C./NR RH, 3-month",2.3%
same,Assay,"[1]; 5° C./NR RH, Time Zero",97.2%
same,Total Impurities,"[1]; 5° C./NR RH, Time Zero",1.9%
same,Water Content,"[1]; 5° C./NR RH, Time Zero",1.9%
same,XRPD,"[1]; 5° C./NR RH, Time Zero",amorphous
same,Assay,"[1]; 25° C./60% RH, 1-month",97.0%
same,Total Impurities,"[1]; 25° C./60% RH, 1-month",1.9%
same,Water Content,"[1]; 25° C./60% RH, 1-month",3.0%
same,XRPD,"[1]; 25° C./60% RH, 1-month",amorphous
same,Assay,"[1]; 25° C./60% RH, 2 weeks",99.5%
same,Total Impurities,"[1]; 25° C./60% RH, 2 weeks",1.9%
same,Water Content,"[1]; 25° C./60% RH, 2 weeks",2.7%%
same,Assay,"[1]; 25° C./60% RH, 3-month",97.8%
same,Total Impurities,"[1]; 25° C./60% RH, 3-month",1.9%
same,Water Content,"[1]; 25° C./60% RH, 3-month",3.1%
same,Assay,"[1]; 25° C./60% RH, Time Zero",97.2%
same,Total Impurities,"[1]; 25° C./60% RH, Time Zero",1.9%
same,Water Content,"[1]; 25° C./60% RH, Time Zero",1.9%
same,XRPD,"[1]; 25° C./60% RH, Time Zero",amorphous
same,Assay,"[1]; 40° C./75% RH, 1-month",97.5%
same,Total Impurities,"[1]; 40° C./75% RH, 1-month",1.9%
same,Water Content,"[1]; 40° C./75% RH, 1-month",4.0%
same,XRPD,"[1]; 40° C./75% RH, 1-month",amorphous
same,Assay,"[1]; 40° C./75% RH, 2 weeks",99.8%
same,Total Impurities,"[1]; 40° C./75% RH, 2 weeks",1.9%
same,Water Content,"[1]; 40° C./75% RH, 2 weeks",3.5%
same,Assay,"[1]; 40° C./75% RH, 3-month",96.4%
same,Total Impurities,"[1]; 40° C./75% RH, 3-month",1.6%
same,Water Content,"[1]; 40° C./75% RH, 3-month",3.8%
same,Assay,"[1]; 40° C./75% RH, Time Zero",97.2%
same,Total Impurities,"[1]; 40° C./75% RH, Time Zero",1.9%
same,Water Content,"[1]; 40° C./75% RH, Time Zero",1.9%
same,XRPD,"[1]; 40° C./75% RH, Time Zero",amorphous
same,solubility,"[2]; FaSSIF, read-out: FaSSIF solubility",2.6 µg/mL
same,solubility,"[2]; FeSSIF, read-out: FeSSIF solubility",4.7 µg/mL
same,BCS class,[3],BCS II compound
same,Dose Number,[3]; for 125 mg,Dose Number (for 125 mg): 106-190
same,Thermal Stability by TGA,Thermal stability by TGA,~0.2% wt. loss to 150 °C
same,Caco2: A-B,Caco2,Caco2: A-B ~26 × 10^−6 cm/s
same,efflux ratio,[4],1.2
same,Solution stress testing: Acid degradation,[5]; 0.1N HCl,Degradation observed
same,"Acid degradation, extent","[5]; 0.1N HCl, 7-days at RT",(~8% 7-days at RT)
same,Solution stress testing: Base degradation,[5]; 0.1N NaOH,Degradation observed
same,"Base degradation, extent","[5]; 0.1N NaOH, 2-days at RT",(~18% 2-days at RT)
same,Solution stress testing: Oxidative degradation,[5]; H2O2,Not susceptible to oxidation
same,Solid State Stress Testing: Chemical Stability,[6]; 70° C./75% RH,No degradation
same,Solid State Stress Testing: Humidity,[6]; 70° C./75% RH,Amorphous crystallizes out
same,Solid State Stress Testing: Photostability,[6]; exposure to UV visible,No light sensitivity
